Structures can show the parent of a compound that is named as a salt. Where only a bound is given, the exact number is not on record here.

The assay addresses T1, BACE-2 (Homo sapiens, UniProt Q9Y5Z0).
T1 construct: Recombinant BACE-2 (extracellular domain, expressed in baculovirus and purified using standard methods); made in house
T1 sequence (Q9Y5Z0 63-473 limits assumed): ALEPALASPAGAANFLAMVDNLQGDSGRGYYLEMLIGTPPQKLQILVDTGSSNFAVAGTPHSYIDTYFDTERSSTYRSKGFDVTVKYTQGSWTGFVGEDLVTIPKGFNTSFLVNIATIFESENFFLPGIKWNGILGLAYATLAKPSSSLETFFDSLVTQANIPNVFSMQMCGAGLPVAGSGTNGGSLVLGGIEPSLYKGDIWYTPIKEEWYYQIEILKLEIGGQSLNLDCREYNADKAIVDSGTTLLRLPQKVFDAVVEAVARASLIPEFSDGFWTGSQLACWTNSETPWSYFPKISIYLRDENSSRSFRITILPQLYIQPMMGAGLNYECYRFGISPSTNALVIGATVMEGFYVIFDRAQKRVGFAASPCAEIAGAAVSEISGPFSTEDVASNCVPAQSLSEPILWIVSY
Description: assay for inhibition of BACE-2. Format: biochemical.
One may read the IC50 as the concentration that inhibits the measured activity by half. Regarding `NC1=N[C@](CF)(c2cc(NC(=O)c3ncc(Br)cc3O)ccc2F)COC1` [Example 94], inhibition was half-maximal at 33 nM (IC50).
With `COc1cc(Br)cnc1C(=O)Nc1ccc(F)c([C@]2(CF)COCC(N)=N2)c1` [Example 95] the figure was 53 nM; with `NC1=N[C@@](c2cc(NC(=O)c3ccc(Br)cn3)ccc2F)(C(F)F)CCOC1` [Example 97], 11 nM; with `N#Cc1ccc(C(=O)Nc2ccc(F)c(C3(C(F)(F)F)CCOCC(N)=N3)c2)nc1` (stereo not shown) [Example 98, 5-Cyano-pyridine-2-carboxylic acid [3-(3-amino-5-trifluoromethyl-2,5,6,7-tetrahydro-[1,4]oxazepin-5-yl)-4-fluoro-phenyl]-amide hydrochloride], 144 nM.
`NC1=NC(c2cc(NC(=O)c3ccc(Br)cn3)ccc2F)(C(F)(F)F)CCOC1` (stereo not shown) [Example 99] gave an IC50 of 37 nM.
With `CC1(c2cc(NC(=O)c3ccc(Cl)cn3)ccc2F)N=C(N)COCC1(F)F` (stereo not shown) [Example 100, N-(3-(3-amino-6,6-difluoro-5-methyl-2,5,6,7-tetrahydro-1,4-oxazepin-5-yl)-4-fluorophenyl)-5-chloropicolinamide] the figure was 17 nM.
The figure for `CC1(c2cc(NC(=O)c3ccc(Br)cn3)ccc2F)N=C(N)COCC1(F)F` (stereo not shown) [Example 101] is 26 nM; for `NC1=NC(c2cccc(NC(=O)c3cc(Br)co3)c2)(C(F)F)COC1` (stereo not shown) [Example 102] it is 240 nM.
Take `NC1=NC(c2cccc(NC(=O)c3ccc(O)nn3)c2)(C(F)F)COC1` (stereo not shown) [Example 103]: the concentration for half-maximal inhibition (IC50) is over 10000 nM.
In turn, `Cc1nc(C(=O)Nc2cccc(C3(C(F)F)COCC(N)=N3)c2)co1` (stereo not shown) [Example 104] yielded an IC50 of 309 nM.
With `CCc1nc(C(=O)Nc2cccc(C3(C(F)F)COCC(N)=N3)c2)co1` (stereo not shown) [Example 105] the figure was 1020 nM; with `Cc1nc(C(=O)Nc2cccc(C3(C(F)F)COCC(N)=N3)c2)c(C)o1` (stereo not shown) [Example 106], 1040 nM.
The figure for `COc1cc(Br)cnc1C(=O)Nc1cccc(C2(C(F)F)COCC(N)=N2)c1` (stereo not shown) [Example 107] is 133 nM; for `NC1=NC(c2cccc(NC(=O)c3ncc(Br)cc3O)c2)(C(F)F)COC1` (stereo not shown) [Example 108] it is 24 nM; for `COCCOc1cnc(C(=O)Nc2cccc(C3(C(F)F)COCC(N)=N3)c2)cn1` (stereo not shown) [Example 109] it is over 10000 nM.
With `NC1=NC(c2cccc(NC(=O)c3cnc(C(F)F)cn3)c2)(C(F)F)COC1` (stereo not shown) [Example 110] the figure was 3550 nM.
The molecule `NC1=N[C@@](c2cc(NC(=O)c3ncc(Cl)cc3Cl)ccc2F)(C(F)F)COC1` [Example 111] had an IC50 of 7 nM.
`N#Cc1ccc(C(=O)Nc2ccc(F)c([C@]3(C(F)F)COCC(N)=N3)c2)nc1` [Example 112, 5-Cyano-pyridine-2-carboxylic acid [3-((R)-5-amino-3-difluoromethyl-3,6-dihydro-2H-[1,4]oxazin-3-yl)-4-fluoro-phenyl]-amide hydrochloride] yielded a half-maximal inhibitory concentration (IC50) of 97 nM.
The figure for `NC1=N[C@@](c2cc(NC(=O)c3ncc(F)cc3F)ccc2F)(C(F)F)COC1` [Example 113] is 29 nM; for `Cc1c(C(=O)Nc2ccc(F)c([C@]3(C(F)F)COCC(N)=N3)c2)oc2ccc(Br)cc12` [Example 114] it is 116 nM; for `Cl.[2H]c1nc(C(=O)Nc2ccc(F)c([C@]3(C(F)F)COCC(N)=N3)c2)c(C([2H])([2H])[2H])c([2H])c1Cl` [Example 115] it is 3 nM.
Take `Cl.[2H]c1nc(C(=O)Nc2ccc(F)c([C@]3(C(F)F)COCC(N)=N3)c2)c(C([2H])([2H])[2H])c([2H])c1Br` [Example 116]: half-maximal inhibition (IC50) was put at 9 nM.
`NC1=N[C@@](c2cc(NC(=O)c3ncc(Br)cc3Cl)ccc2F)(C(F)F)COC1` [Example 117] came in with an IC50 of 13 nM.
With `NC1=N[C@@](c2cc(NC(=O)c3ccc(Br)cn3)ccc2F)(C(F)F)COC1` [Example 118] the figure was 11 nM; with `NC1=N[C@@](c2cc(NC(=O)c3ncc(Br)cc3O)ccc2F)(C(F)F)COC1` [Example 119], 14 nM.
In the case of `CCOc1ccc(C(=O)Nc2ccc(F)c([C@]3(C(F)F)COCC(N)=N3)c2)nc1` [Example 120], the IC50 was 1060 nM.
The figure for `NC1=N[C@@](c2cc(NC(=O)c3cnc(C(F)F)cn3)ccc2F)(C(F)F)COC1` [Example 122] is 514 nM; for `NC1=N[C@@](c2cc(NC(=O)c3cnc(OCC(F)F)cn3)ccc2F)(C(F)F)COC1` [Example 123] it is 1830 nM; for `NC1=N[C@@](c2cc(NC(=O)c3cnc(OCC(F)(F)F)cn3)ccc2F)(C(F)F)COC1` [Example 124] it is 1630 nM.
Turning to `NC1=N[C@@](c2cc(NC(=O)c3cc(Br)co3)ccc2F)(C(F)F)COC1` [Example 125], the IC50 was 102 nM.
The figure for `NC1=N[C@@](c2cc(NC(=O)c3cc4ccccn4n3)ccc2F)(C(F)F)COC1` [Example 126] is 550 nM.
The figure for `Cc1nc(C(=O)Nc2ccc(F)c([C@]3(C(F)F)COCC(N)=N3)c2)co1` [Example 127] is 35 nM.
`Cc1nc(C(=O)Nc2ccc(F)c([C@]3(C(F)F)COCC(N)=N3)c2)c(C)o1` [Example 128] showed an IC50 of 95 nM.
The figure for `NC1=N[C@@](c2cc(NC(=O)c3cn4ccccc4n3)ccc2F)(C(F)F)COC1` [Example 129] is 1630 nM.
`COc1cc(Br)cnc1C(=O)Nc1ccc(F)c([C@]2(C(F)F)COCC(N)=N2)c1` [Example 130] yielded an IC50 of 42 nM.
With `CCc1nc(C(=O)Nc2ccc(F)c([C@]3(C(F)F)COCC(N)=N3)c2)co1` [Example 131] the figure was 67 nM; with `NC1=N[C@@](c2cc(NC(=O)c3ccc(C(F)F)cn3)ccc2F)(C(F)F)COC1` [Example 132], 180 nM.
With `Cn1ccnc1C(=O)Nc1ccc(F)c([C@]2(C(F)F)COCC(N)=N2)c1` [Example 133] the figure was 573 nM; with `NC1=N[C@@](c2cc(NC(=O)c3ccc(O)nn3)ccc2F)(C(F)F)COC1` [Example 134], 844 nM; with `COCCOc1cnc(C(=O)Nc2ccc(F)c([C@]3(C(F)F)COCC(N)=N3)c2)cn1` [Example 135], 1090 nM.
With `NC1=N[C@@](c2cc(NC(=O)c3cnc(OCCF)cn3)ccc2F)(C(F)F)COC1` [Example 136] the figure was 1140 nM; with `NC1=N[C@@](c2cc(NC(=O)c3ccc(Cl)cn3)ccc2F)(C(F)F)COC1` [Example 137], 18 nM.
`NC1=N[C@@](c2cc(NC(=O)c3ccc(OC(F)F)cn3)ccc2F)(C(F)F)COC1` [Example 138] gave an IC50 of 458 nM.
With `NC1=N[C@@](c2cc(NC(=O)c3ccc(OCF)cn3)ccc2F)(C(F)F)COC1` [Example 139] the figure was 106 nM.
The figure for `NC1=N[C@@](c2cc(NC(=O)c3ncc(Cl)cc3F)ccc2F)(C(F)F)COC1` [Example 140] is 15 nM; for `NC1=N[C@@](c2cc(NC(=O)c3cnc(Cl)cn3)ccc2F)(C(F)F)COC1` [Example 141] it is 43 nM.
The figure for `Cc1cc(C(=O)Nc2ccc(F)c([C@]3(C(F)F)COCC(N)=N3)c2)n[nH]1` [Example 142] is 522 nM; for `Cc1ccc(C(=O)Nc2ccc(F)c([C@]3(C(F)F)COCC(N)=N3)c2)nc1` [Example 143] it is 66 nM; for `Cc1cc(C#N)cnc1C(=O)Nc1ccc(F)c([C@]2(C(F)F)COCC(N)=N2)c1` [Example 144] it is 51 nM.
On to `NC1=N[C@@](c2cc(NC(=O)c3cnc(O)cn3)ccc2F)(C(F)F)COC1` [Example 145], for which the half-inhibitory concentration (IC50) worked out at 697 nM.
With `Cl.[2H]c1nc(C(=O)Nc2ccc(F)c([C@]3(C(F)F)COCC(N)=N3)c2)c(C([2H])([2H])[2H])c([2H])c1C#N` [Example 147] the figure was 165 nM; with `Cc1nc(C(=O)Nc2ccc(F)c([C@]3(C(F)F)COCC(N)=N3)c2)cs1` [Example 148], 287 nM.
In turn, `Cc1cnc(C(=O)Nc2ccc(F)c([C@]3(C(F)F)COCC(N)=N3)c2)s1` [Example 149] yielded an IC50 of 476 nM.
With `Cn1ccc(C(=O)Nc2ccc(F)c([C@]3(C(F)F)COCC(N)=N3)c2)n1` [Example 150] the figure was 61 nM; with `Cn1cc([N+](=O)[O-])c(C(=O)Nc2ccc(F)c([C@]3(C(F)F)COCC(N)=N3)c2)n1` [Example 151], 376 nM.
`C[C@@]1(c2cc(NC(=O)c3ncc(Cl)cc3N)ccc2F)CO[C@@](C)(C(F)(F)F)C(N)=N1` [Example 153, 3-Amino-5-chloro-pyridine-2-carboxylic acid [3-((3R,6R)-5-amino-3,6-dimethyl-6-trifluoromethyl-3,6-dihydro-2H-[1,4]oxazin-3-yl)-4-fluoro-phenyl]-amide hydrochloride] registered an IC50 of 3 nM.
With `CC1(c2cc(NC(=O)c3ncc(C(F)(F)F)cc3Cl)ccc2F)N=C(N)COCC1(F)F` (stereo not shown) [Example 154, 3-Chloro-5-trifluoromethyl-pyridine-2-carboxylic acid [3-(3-amino-6,6-difluoro-5-methyl-2,5,6,7-tetrahydro-[1,4]oxazepin-5-yl)-4-fluoro-phenyl]-amide] the figure was 408 nM; with `COc1cc(Br)cnc1C(=O)Nc1ccc(F)c(C2(C)N=C(N)COCC2(F)F)c1` (stereo not shown) [Example 155, 5-Bromo-3-methoxy-pyridine-2-carboxylic acid [3-(3-amino-6,6 difluoro-5-methyl-2,5,6,7 tetrahydro-[1,4]oxazepin-5-yl)-4 fluoro-phenyl]-amide], 43 nM.

The values are drawn from US20140128385A1 (NOVARTIS AG, priority 2011, published 2014).
